Measurements published in patent US20260216057A1, “PHARMACEUTICAL COMPOSITIONS FOR HERPES VIRUS” (priority 2022, published 2026).

Assays:
[1] = Example 14: pritelivir SC PK study in dog (solution, micro-suspension, nano-suspension); assay type: in vivo, male non-naïve Beagle dogs; conditions: 10 mg/kg
Procedure: The LC-MS methodology and conditions used to analyse pritelivir in dog plasma samples from the PK study described in Example 14 are provided in Table 2.
A solution of pritelivir in 90% NMP (Sigma) and 10% Solutol HS15 (BASF) at a concentration of 100 mg/mL was prepared as follows: • 1) Around 460 mg of crystalline pritelivir free base sesquihydrate (based on assay) was weighed and added to ~3.9 mL of NMP. The mixture was stirred for 10 mins. • 2) After the pritelivir had dissolved, Solutol HS15 (−0.4 mL) was added to the solution and mixed for another 2 mins. • 3) The final dosing formulation was a clear solution.
An aqueous micro-suspension of crystalline pritelivir free base (sesquihydrate) in a 2 mg/mL polysorbate 80 (Tween 80) and 5 mg/mL Methocel A4M vehicle at a concentration of 100 mg/mL was prepared as follows: • 1) Crystalline pritelivir free base (sesquihydrate) was jet milled [grinding pressure […]] to obtain microparticles (Dv90<10 um). • 2) Around 460 mg of jet milled material (based on assay) were then dispersed in a 2 mg/mL polysorbate 80 (Tween 80) and 5 mg/ml Methocel A4M solution (−4.4 mL) to obtain a 100 mg/ml suspension. • 3) The mixture was stirred for 10 minutes. • 4) The final dosing formulation was a homogenous white cloudy suspension.
An aqueous nano-suspension of crystalline pritelivir free base (sesquihydrate) in a 10 mg/mL NaCMC, 2 mg/mL polysorbate 80 (Tween 80) and 50 mg/mL mannitol vehicle at a concentration of 100 mg/mL was prepared as follows: • 1) 10 mg/mL crystalline pritelivir free base (sesquihydrate) was dispersed into a solution of 1 mg/mL NaCMC+0.2 mg/mL polysorbate 80 (Tween 80) and 5 mg/mL mannitol. • 2) The suspension was subjected to high pressure homogenizer (around 20 cycles at 600 bar followed with 130 cycles at 900 bar) until particle size was around 1 μm. • 3) After particle size reduction, the suspension was subjected to freeze drying to obtain a freeze-dried powder. • 4) The freeze-dried powder was reconstituted with water to obtain a 100 mg/ml suspension. • 5) The suspension was wet milled (10:1 0.1 mm zirconium oxide milling beads: pritelivir) at 700 rpm for 500 minutes to reduce particle size to nanosized particles (Dv90<500 nm). • 6) This nanosuspension was subjected to freeze drying to obtain a freeze-dried powder. • 7) Appropriate amounts of freeze-dried powder (based on assay) were weighed and added to water to obtain a 100 mg/ml suspension. • 8) The mixture was stirred for 10 minutes. • 9) The final dosing formulation was a homogenous white cloudy suspension.
Male non-naïve beagles were used for the dog PK study. […]
(§1) At each time point, approximately 0.5 mL of whole blood was collected into K2EDTA tubes. […] Plasma samples were stored at approximately −70° C. until analyzed by LC-MS.

[2] = Example 16: Compound 1 solution SC PK study in dog; assay type: in vivo, male non-naïve Beagle dogs; conditions: 10 mg/kg
Procedure: The LC-MS methodology and conditions used to analyse the helicase-primase inhibitor Compound 1 in dog plasma samples from the dog PK study described in Example 16 are given in Table 9.
(§2) A solution of Compound 1 in 90% NMP and 10% Solutol HS15 at a concentration of 50 mg/mL was prepared as follows: • 1) An appropriate amount of crystalline Compound 1 (Form C) was weighed and added to NMP. • 2) After Compound 1 had dissolved, Solutol HS15 was added to the solution and mixed. • 3) The final dosing formulation was a clear solution.
as §2, with “100” for “50”
Male non-naïve beagles were used for the dog PK study. The animals had free access to food and water. The prepared 50 mg/mL solution was administered via subcutaneous injection to each animal group (n=3) with a dosing volume of 0.2 mL/kg to achieve a 10 mg/kg dose. […]
as §1

[3] = Example 12: Compound 1 (Form A) aqueous suspension SC PK study in dog; assay type: in vivo, male non-naïve Beagle dogs; conditions: 10 mg/kg, following an initial drug burst
Procedure: An aqueous suspension of Compound 1 free form (Form A) in a 0.9% NaCl+0.5% poloxamer 188 vehicle at a concentration of 5.0 mg/mL was prepared as follows: • 1) Vehicle (0.9% w/w NaCl and 0.5% w/w poloxamer 188) was prepared by dissolving NaCl and poloxamer 188 in water. • 2) Appropriate amount of Compound 1 free form was weighed and added to the vehicle. • 3) The mixture was stirred for 15 minutes, then vortexed for 1 minute and then sonicated for 10 minutes. • 4) The final dosing formulation was a homogenous white cloudy suspension.
Male non-naïve beagles with ~10 kg body weight were used for the dog PK study. The animals had free access to food and water. The prepared suspension was administered via subcutaneous injection to each animal group (n=3) with a dosing volume of 2 mL/kg to achieve a 10 mg/kg dose.
At each time point, approximately 0.5 mL of whole blood was collected into K2EDTA tubes. Blood samples were put on ice and centrifuged at 2000 g for 5 min to obtain plasma samples within 15 minutes. Plasma samples were stored at approximately −70° C. until analyzed by LC-MS.

[4] = Example 15: Compound 1 solution SC PK study in rat; assay type: in vivo, male Sprague Dawley rats
Procedure: The LC-MS methodology and conditions used to analyse the helicase-primase inhibitor Compound 1 in rat plasma samples from the sub-cutaneous injection PK study described in Example 15 are provided in Table 8.
as §2, with “mixed […].” for “mixed.”
Male Sprague Dawley (SD) rats with ~230-250 g body weight (aged 6-8 weeks) were used for the pharmacokinetic study. The animals had free access to food and water. […]
At each time point, approximately 150 μL whole blood was collected in a K2EDTA tube via the jugular vein. Blood samples were put on ice and centrifuged at 2000 g for 5 min to obtain a plasma sample within 15 minutes. Plasma samples were stored at approximately −70° C. until analyzed by LC-MS.

[5] = solution in 90% NMP/10% Solutol HS15

plasma exposure after SC administration ([1]; 0.1 mL/kg, all three formulations (solution, microsuspension, nanosuspension; 100 mg/mL)) | prolonged exposure for (length of the study) ([2]; solutions 50 mg/mL (0.2 mL/kg) and 100 mg/mL (0.1 mL/kg), both formulations) | prolonged exposure out to [3] | variability in plasma concentrations [4, 5] | prolonged exposure for (length of the study) ([4]; solution in 90% NMP/10% Solutol HS15 (50 mg/mL), dose of 50 mg/kg as printed, following an initial drug burst) [h] | SMILES | plasma concentrations, microsuspension compared with nanosuspension ([1]; early time points (up to 234 hr)) | plasma concentration levels of the solution formulation compared with the suspensions ([1]; solution in 90% NMP/10% Solutol HS15, early time points) | adverse reactions at the injection sites ([1]; three formulations) | adverse reactions at the injection sites ([2]; both solution formulations) | adverse reactions at the injection sites [4, 5]
Prolonged exposure was achieved | – | – | – | – | Cc1nc(N(C)C(=O)Cc2ccc(-c3ccccn3)cc2)sc1S(N)(=O)=O [pritelivir, N-methyl-N-(4-methyl-5-sulfamoyl-1,3-thiazol-2-yl)-2-[4-(pyridin-2-yl)phenyl]acetamide] | higher plasma concentrations of pritelivir were obtained from the microsuspension | highest plasma concentration levels at the early time points | no adverse reactions were observed | – | –
– | at least 60 days | at least 220 days | low | 960 | Cc1nc(N2CCCN(c3ccc(-c4cc(F)ccc4F)cc3)C2=O)sc1S(N)(=O)=O [Compound 1, 2-(3-(2′,5′-difluoro-[1,1′-biphenyl]-4-yl)-2-oxotetrahydropyrimidin-1(2H)-yl)-4-methylthiazole-5-sulfonamide] | – | – | – | no adverse reactions were observed | no adverse reactions were observed
